In patent US8367606B2, “Method and compositions for prevention and treatment of diabetic and aged skin” (HealOr Ltd., priority 2005, dated 2013):

Key:
[1] = test system: primary mouse keratinocytes; experiment: Filaggrin expression in differentiating keratinocytes (Western blot of cytoskeletal fraction); type: cell-based; conditions: 50, 150 and 300 nM; 0.12 mM Ca2+
Method: Primary mouse keratinocytes were cultured in 0.05 mM Ca^+2 MEM and differentiation was induced by elevating Ca^+2 concentrations to 0.12 mM. Keratinocytes were treated with either PBS (control) or different concentrations (50, 150 and 300 nM) of troglitazone, a PPARγ activator. The cells were lysed and the cytoskeletal fraction was subjected to SDS-PAGE and blotted with anti-filaggrin antibody.

[2] = test system: damaged skin from diabetic (STZ injected) C57BL/6J mice; experiment: Reconstruction of the hypodermis layer in damaged diabetic skin (H&E histology); type: in vivo; conditions: 7-9 days treatment; insulin 0.1 unit + peptide 1 μM, or adipsin 1 μM
Method: Damaged skin from diabetic (STZ injected) C57BL/6J mice was treated with either PBS (control); a mixture of insulin (0.1 unit) and the N-myristoylated PKCα pseudosubstrate peptide of SEQ ID NO: 1 (1 μM); or adipsin (1 μM) for 7-9 days. Skin biopsies were then collected and embedded in paraffin, and histological sections were performed and stained with H&E. The sections were analyzed for presence of the hypodermis layer presented as a continuous layer of adipocytes, and the percent of total animals per each group with fully reconstituted hypodermis is shown in FIGS. 11A-11B.

[3] = test system: damaged skin of diabetic (STZ injected) C57BL/6J mice; experiment: Inflammatory response in damaged skin of diabetic mice (H&E histology, abscess formation and leukocytosis); type: in vivo; conditions: adiponectin 0.1 μg/ml for 7 days; non-treated control 90%; severe = both abscess and leukocytosis
Method: Damaged skin of diabetic (STZ injected) C57BL/6J mice was treated with either PBS (control) or adiponectin (0.1 μg/ml) for 7 days (total n=18). Thereafter, skin biopsies were collected, embedded in paraffin, and analyzed for inflammation by H&E histological staining. Inflammation was graded by abscess formation and excessive leukocytosis in the skin and proximal blood vessels, and severe inflammation was considered when both abscess and leukocytosis were apparent.
In the next step, damaged skin from diabetic (STZ injected) C57BL/6J mice was treated with either PBS (control); a mixture of insulin (0.1 unit) and the N-myristoylated PKCα pseudosubstrate peptide of SEQ ID NO: 1 (1 μM); or Copolymer-1 (Teva Pharmaceutical Industries, Israel), (55 μg/ml) for 9 days (n=6 per each group). […] Thereafter, skin biopsies were collected, embedded in paraffin, and analyzed for inflammation by H&E histological staining. Inflammation was graded as described above.

Molecule: Cc1c(C)c2c(c(C)c1O)CCC(C)(COc1ccc(CC3SC(=O)NC3=O)cc1)O2 (stereo not drawn) [troglitazone, 5-(4-(6-hydroxy-2,5,7,8-tetramethylchroman-2-yl-methoxy)benzyl)-2,4-thiazolidinedione]
- filaggrin expression (terminal differentiation marker, FIG. 12) [1]: upregulation of filaggrin expression

Molecule: adipsin: adipokine, complement factor D secreted by adipocytes
- reconstitution of the hypodermis layer (FIGS. 11A-11B) [2]: can reconstruct the hypodermal subcutaneous layer

B1: adiponectin: adipokine, a bioactive molecule secreted by adipocytes (protein, UniProt Q15848 19-244, looked up)
Adiponectin: ETTTQGPGVLLPLPKGACTGWMAGIPGHPGHNGAPGRDGRDGTPGEKGEKGDPGLIGPKGDIGETGVPGAEGPRGFPGIQGRKGEPGEGAYVYRSAFSVGLETYVTIPNMPIRFTKIFYNQQNHYDGSTGKFHCNIPGLYYFAYHITVYMKDVKVSLFKKDKAMLFTYDQYQENNVDQASGSVLLHLEVGDQVWLQVYGEGERNGLYADNDNDSTFTGFLLYHDTN
- percent of animals exhibiting severe inflammation of the skin [3]: 20%
